Source: BindingDB's records for PubMed 38340508 (Biomedical Research Foundation of the Academy of Athens)

Assay: Inhibition of MYC in chicken embryonic fibroblasts assessed as reduction in transformed cell foci with repeated addition of compounds every second day and measured after 1 to 3 weeks by crystal violet staining based analysis

## Cc1cc(N2CCCCC2)nc2ccc(Cc3ccc4nc(N5CCCCC5)cc(C)c4c3)cc12
  IC50: 3000 nM
